# In patent publication US20090054470A1, “USE OF MITOCHONDRIAL ELECTRON TRANSPORT INHIBITORS TO CONTROL FOULING ORGANISMS” (priority 2005, published 2009):
# Assays:
# [1] = test system: Artemia salina instar II larvae; assay: In vitro efficacy against Artemia salina (larval survival); assay type: in vivo
# Description: 1. In Vitro Efficacy Against Artemia salina
# The crustaceous marine animal Artemia salina was used as a model organism for other marine fouling organisms.
# An artificial seawater medium inoculated with approximately 30 Artemia salina instar II larvae was introcuced in each well of a 24 well microtiter plate (2 ml per well). This culture was incubated with the test compound dissolved in dimethylsulfoxide (8000 ppm stock solution in DMSO) in order to have a final concentration of the test compound ranging from 0.027 ppm to 20 ppm in 24 steps. Survival of the Artemia salina larvae was evaluated after 24 and 48 hours. Zinc pyrithione was used as a reference art known antifouling agent and a DMSO solution without test compound was used as control.
# The ECX value (in […]=ppm): lowest concentration of the test compound at which moderate activity (reduced vitality of Artemia salina larvae) was observed and has been listed below in Table 1.
# animal fouling = assay: Field evaluation of marine antifouling activity (painted PVC boards immersed in sea water); conditions: Oosterschelde at Bruinisse, average of two scores; for Fouling scores after 12 weeks: rosin paint on PVC panels; for Fouling scores after x weeks: vinylite paint on PVC panels
# Text: 2. Field Evaluation of Marine Antifouling Activity […]
# Composition vinylite paint (% w/w): 9.1% test compound (74% in the dried coating), 3.2% vinylite, 87.7% cyclohexanone.
# Composition rosin paint (% w/w): 6.7% test compound (18.4% in the dried coating), 34.9% rosin (69.6% in xylene), 6.3% vinyl resin, 5.7% tritolyl phosphate, 45.0% methyl isobutylketone and 1.4% xylene.
# The PVC boards (10×2×0.5 cm) were painted twice to obtain a coating layer of 140 g/m^2 having a thickness of 50 μm and dried for two weeks before immersion in sea water. The exact quantity of test compound on each board was determined by comparing the initial and final weights of the PVC boards. The PVC boards were placed in a frame and suspended from the bottom of a raft at a depth of 0.6 m below the sea water surface level.
# Rating system to evaluate surface fouling:
# score 0: no growth on the panel score 1: up to 20% of the surface covered by fouling organisms score 2: between 21% and 40% of the surface covered by fouling organisms score 3: between 41% and 60% of the surface covered by fouling organisms score 4: between 61% and 80% of the surface covered by fouling organisms score 5: more than 81% of the surface covered by fouling organisms
# Figures are an average of two scores (back and front of test panel).
Compound,ECX (lowest concentration at which reduced vitality of Artemia salina larvae) ([1]; 24 hours),MIC (lowest concentration at which all Artemia salina larvae dead) ([1]; 24 hours),ECX (lowest concentration at which reduced vitality of Artemia salina larvae) ([1]; 48 hours),MIC (lowest concentration at which all Artemia salina larvae dead) ([1]; 48 hours),Fouling scores after 12 weeks (animal fouling),Fouling scores after x weeks (animal fouling; 4 weeks),Fouling scores after x weeks (animal fouling; 8 weeks),Fouling scores after x weeks (animal fouling; 15 weeks)
Zinc pyrithione,8.44 mg/l (=ppm),20 mg/l (=ppm),6.33 mg/l (=ppm),11.25 mg/l (=ppm),,,,
CCc1nn(C)c(C(=O)NCc2ccc(C(C)(C)C)cc2)c1Cl [tebufenpyrad],1.13 mg/l (=ppm),2 mg/l (=ppm),0.84 mg/l (=ppm),1.5 mg/l (=ppm),1.5,,,
CC(C)(C)c1ccc(CCOc2ncnc3ccccc23)cc1 [fenazaquin],0.84 mg/l (=ppm),1.5 mg/l (=ppm),0.84 mg/l (=ppm),1.5 mg/l (=ppm),,0,0,3 (score 3: between 41% and 60% of the surface covered by fouling organisms)
CC(C)(C)c1ccc(CSc2cnn(C(C)(C)C)c(=O)c2Cl)cc1 [pyridaben],0.36 mg/l (=ppm),2 mg/l (=ppm),0.36 mg/l (=ppm),0.48 mg/l (=ppm),1.5,,,
